Values of other authors in publication PMC8511391, “Optimization of Pichia pastoris Expression System for High-Level Production of Margatoxin” (Frontiers in Pharmacology, 2021).

Experiments:
Kv1.2 = details: 2014, cited from earlier work
Experimental: Margatoxin (MgTx) is a 39-amino-acid peptide toxin isolated from the venom of the scorpion Centruroides margaritatus. Its 3D structure consists of an α-helix and three antiparallel β-strands stabilized by three disulfide bonds. […] Previous studies report the production of recombinant MgTx (rMgTx) in E. coli and P. ... || Pharmacological activity of both versions of rMgTx was evaluated by studying their effect on the hKv1.2 and hKv1.3 ion channels. The hKv1.2 current was recorded in CHO cells, which heterologously expressed the hKv1.2 ion channel, and hKv1.3 current was recorded in the human peripheral blood lymphocytes. The stimulation of the hKv1.3 channel expression (activation of isolated mononuclear cells by PHA, see the Materials and Methods section) and recording conditions (no Ca^2+ in the pipette to elicit Ca^2+-activated K^+ channels) guaranteed that the current recorded in these cells is K^+ current ... || The kinetics of current block by UrMgTx was consistent with previously reported data for MgTx. […] The association rate of TrMgTx, which has the N-terminal His-tag, was ∼1.6-fold lower than that of UrMgTx for both hKv1.2 and hKv1.3. The reduced k on rate could be explained by non–diffusion-limited bimolecular toxin–channe ...

Kv1.1 = details: abstract, ref not given; cited from earlier work
From the text: Margatoxin (MgTx) is a high-affinity blocker of voltage-gated potassium (Kv) channels. […] This toxin is widely used to study physiological function of Kv ion channels in various cell types, including immune cells. Isolation of native MgTx in large quantities from scorpion venom is not affordable. Chemical synthesis and recombinant production in Escherichia coli need in vitro oxidative refolding for proper disulfide bond formation, resulting in a very low yield of peptide production. The Pichia pastoris expression system offers an e ...

Kv1.3 = details: 2014, cited from earlier work
Experimental: Voltage-gated potassium (Kv) channels are present in a variety of cells and tissues where they regulate multiple physiological processes, including cardiac function, neural excitability, muscle contraction, cell proliferation, cell volume control, and hormonal secretion ([Coetzee et al., 1999]; [Giangiacomo et al., 2004]). […] Previous studies report the production of recombinant MgTx (rMgTx) in E. coli and P. ... || Pharmacological activity of both versions of rMgTx was evaluated by studying their effect on the hKv1.2 and hKv1.3 ion channels. The hKv1.2 current was recorded in CHO cells, which heterologously expressed the hKv1.2 ion channel, and hKv1.3 current was recorded in the human peripheral blood lymphocytes. The stimulation of the hKv1.3 channel expression (activation of isolated mononuclear cells by PHA, see the Materials and Methods section) and recording conditions (no Ca^2+ in the pipette to elicit Ca^2+-activated K^+ channels) guaranteed that the current recorded in these cells is K^+ current ... || (+ 2 further places)

[1] = ref Garcia-Calvo et al., 1993, Bartok et al.

## MgTx (TIINVKCTSPKQCLPPCKAQFGQSAGAKCMNGKCKCYPH; UniProt P40755 1-39, looked up)
Kv1.2; hKv1.2, whole-cell patch-clamp, ref Bartok et al.
  kinetics and reversibility of block, hKv1.2: develops relatively slowly and reversibility of the block is limited
Kv1.2; [1]
  inhibition of Kv1.2: high potency in picomolar concentrations
Kv1.1
  inhibition of Kv1.1: in picomolar concentrations
Kv1.3; hKv1.3, whole-cell patch-clamp, ref Bartok et al.
  kinetics and reversibility of block, hKv1.3: equilibrium block develops rapidly and is fully recoverable upon washout
Kv1.3; [1]
  inhibition of Kv1.3: high potency in picomolar concentrations
